“Also recorded” adds a separate entry of the source. Read-outs that look alike come from different tables or passages of the source.
Columns and labels:
[1] = Acute toxicity in mice; conditions: mouse, in vivo, ip, mice, i.p.
Procedure: (§1) Compounds according to the present invention were checked for their influence on gross behaviour. The experiments described herein (Examples 11, 12, 13, 14, and 15) were carried out using outbred male mice weighing approximately 18-24 g. Each substance was administered intraperitoneally 45 min. before the experiment. Locomotor activity was estimated individually for each animal for 3 min. using an actometer `Era-1` (Russia).
(§2) The compounds of the present invention were checked for acute toxicity in outbred male mice (18-22 g.). They were administered intraperitoneally and the lethality was estimated 24 hours later (Table 6). In the dose range of 500-1000 mg/kg i.p. Compound 1 caused death in 50% of the animals. Compound 1 is almost 5 times less toxic than other compounds.

[2] = tested on: outbred male mice; experiment: Acute toxicity in mice; conditions: mouse, in vivo, ip
Procedure: as §1, §2

[3] = tested on: convulsive effect of pentylenetetrazole in mice; experiment: Convulsive effect of pentylenetetrazole; assay type: in vivo, outbred male mice
Procedure: as §1
The influence of Compound 1 on the latency of convulsions and on the duration of animals' lives after pentylenetetrazole (130 mg/kg subcutaneously) was studied in outbred mice.

[4] = tested on: duration of immobility in mice; experiment: Behavioural despair test (forced swimming); assay type: in vivo, outbred male mice; conditions: for The duration of immobility: i.p.
Procedure: as §1
The influence of compounds on behavioral despair was studied according to the model described by Porsolt et al., Arch. int. pharmacodyn.et ther., 228, 327-[…] (1977), which is incorporated herein by reference. Mice, when forced to swim in a cylinder of water without the possibility of escape, rapidly adopt a characteristic immobile posture. […] The only movements they make are those necessary to keep their heads above water.

[5] = tested on: motor behavior in mice; experiment: Horizontal wire test (coordination of movements and myorelaxation); conditions: mice
Procedure: (§3) The influence of Compound 1 on the motor behavior was studied according to a "rotating rod" test and a "horizontal wire" test in outbred male mice (18-22 g). A rotating rod (2 cm diameter and 5 rpm speed) was used. Acquisition was defined as the ability to remain on the rotating rod for 2 min. Each animal had two trials. According to the "horizontal wire" test a mouse was hung on the wire (0.3 cm. diameter, wire was fixed horizontally 40 cm above the floor) by the forepaws. The ability to pull the hind legs up to the wire for 2 min. was a criterion of test performance.

[6] = tested on: BALB/c mice; experiment: Open field test, BALB/c mice; assay type: in vivo, male BALB/c mice; conditions: for Central activity / Crosses of Squires / Emotionality (N. of defec.) / Total locomotor activity / Vert. stands: BALB/c, i.p.
Procedure: The effects of Compound 1 on different emotional stress reactions (ESR) in male mice of C57 B1/6 and BALB/c strains were studied. ESR indices were evaluated as changes in mice ambulations, defecations and motor activity in an "open field" test (Seredenin S. B., Vedernikov, A. A., Bull. Exp. Biol. Med., 100, No. 7, 38-40 (1979), which is incorporated herein by reference). Compound 1 was injected in different doses intraperitoneally 45 min. before test.

[7] = tested on: rat behavior in Vogel conflict test; experiment: Vogel conflict test (anxiolytic activity, punished responses in water-deprived rats); assay type: in vivo, outbred male albino rats
Excerpt: Compounds according to the present invention were checked for their anxiolytic activity. Behaviour suppressed by punishment is a very reliable indicator of the anxiolytic activity of drugs. A variant of the conflict situation test was used to reveal anxiety in water-deprived rats whose licking was suppressed by shock (see Vogel et al., Phychopharmacologia, 21, 1-7 (1971); J. E. Barrett in Animal Models in Psychopharmacology, Advances in Pharmacological Sciences, 1991; and Birkhauser Verlag, Basel, p. 37.52, Molodavkin et al., Exper. Clin. Pharmacol., 56, (1993), which are incorporated herein by reference).
The experiments were carried out using outbred male albino rats (180-220 g). This experiment involved previous training of water-deprived rats to drink water from a trough. Next day electrical stimulation was given delivering 0.5 mA electric shocks through the trough and metal grid floor of the experimental chamber. A conflict situation was created by clashing motivations (survival and self defense). The degree of anxiolytic activity was estimated by the measurement of the amount of punished licks for 10 min. Each compound was administered intraperitoneally 45 min. before the conflict test.

[8] = tested on: memory formation in rats; experiment: Passive avoidance test, step-through (memory formation, retention); assay type: in vivo, outbred male albino rats
Procedure: The influence of Compound 1 on memory formation was studied in a passive avoidance test, step-through paradigm (equipment of Laffaette Co., USA). The experiments were carried out on outbred male albino rats ([…]). Compound 1 and other drugs were administered intraperitoneally 45 min. before the passive avoidance training. The retention was tested 24 hours later learning (painful electroshock in the dark compartment) by the measurement of the time spent in the dark compartment for 3 min.

[9] = tested on: motor behavior in mice; experiment: Rotating rod test (coordination of movements and myorelaxation); conditions: for Disturbances according to rotating rod test, effect in %: mice
Procedure: as §3

[10] = 10 mg/kg + pentylenetetrazole 130 mg/kg s.c.
[11] = rat, 5.0 mg/kg i.p., retention 24 hours later, 3 min

O=C(O)CCC(=O)O.c1cc2n(c1)CCNC2 [Compound 1, 1,2,3,4-tetrahydropyrrolo-[1,2-a]-pyrazine hydrosuccinate]
LD50 at 24 h ([1]; 24 hours, read-out: Dose range causing death in 50% of the animals): 500 to 1000 mg/kg | LD50 at 24 h ([1]; lethality 24 hours later, Table 6 (range in brackets beside), read-out: LD50): 1540 mg/kg | Times less toxic than other compounds [2]: ~5 times | Duration of animal survival [3, 10]: 7.3 ± 1.0 min | Latency of clon. [3, 10]: 3.35 ± 0.7 min | Latency of ton. [3, 10]: 7.06 ± 1.0 min | Effect on latency of convulsions and animal survival after pentylenetetrazole, in words ([3]; pentylenetetrazole 130 mg/kg subcutaneously): increase the duration of animals' survival after pentylenetetrazole injection; also recorded: causes prolongation of the latency of convulsions and of animal survival after pentylenetetrazole | Influence on duration of immobility, in words ([4]; forced swimming): did not show any activity; also recorded: does not change the duration of immobility | The duration of immobility ([4]; 5.0 mg/kg): 117.3 ± 6.9 s | The duration of immobility ([4]; 10.0 mg/kg): 110.8 ± 5.1 s | Disturbances according to horizontal wire test, effect in % ([5]; dose 5.0): 0% | Disturbances according to horizontal wire test, effect in % ([5]; dose 10.0): 0% | Disturbances according to horizontal wire test, effect in % ([5]; dose 20.0): 0% | Disturbances according to horizontal wire test, effect in % ([5]; dose 40.0): 0% | Disturbances according to horizontal wire test, effect in % ([5]; dose 80.0): 0% | Disturbances according to horizontal wire test, effect in % ([5]; dose 250.0): 0% | Open field behavior of BALB/c mice, in words ([6]; 2.5 and 5.0 mg/kg i.p.): produces activating (anxiolytic) effect in initially low active BALB/c mice; also recorded: caused ambulation increase elevating the central activity, and defecation decrease in BALB/c mice | Central activity ([6]; 0.1 mg/kg): 0.0 | Crosses of Squires ([6]; 0.1 mg/kg): 21.2 ± 5.8 | Emotionality (N. of defec.) ([6]; 0.1 mg/kg): 0.5 ± 0.17 | Total locomotor activity ([6]; 0.1 mg/kg): 21.2 ± 5.8 | Vert. stands ([6]; 0.1 mg/kg): 0.0 | Central activity ([6]; 1.0 mg/kg): 0.4 ± 0.3 | Crosses of Squires ([6]; 1.0 mg/kg): 25.6 ± 4.6 | Emotionality (N. of defec.) ([6]; 1.0 mg/kg): 1.2 ± 0.13 | Total locomotor activity ([6]; 1.0 mg/kg): 26.1 ± 4.6 | Vert. stands ([6]; 1.0 mg/kg): 0.1 ± 0.1 | Central activity ([6]; 5.0 mg/kg): 2.4 ± 0.9 | Crosses of Squires ([6]; 5.0 mg/kg): 29.8 ± 5.2 | Emotionality (N. of defec.) ([6]; 5.0 mg/kg): 0.45 ± 0.11 | Total locomotor activity ([6]; 5.0 mg/kg): 33.0 ± 6.1 | Vert. stands ([6]; 5.0 mg/kg): 0.9 ± 0.5 | Anxiolytic effectiveness after chronic administration, in words ([7]; 5 mg/kg i.p. once daily for 40 days): anxiolytic effectiveness of Compound 1 is preserved after its chronic administration | The number of punished responses ([7]; rat, 2.0 mg/kg i.p., 45 min before test, Table 1): 43.52 ± 14.8 | The number of punished responses ([7]; rat, acute administration, 5 mg/kg, Table 3): 49.52 ± 15.91 | The number of punished responses ([7]; rat, chronic administration, 5 mg/kg i.p. once daily for 40 days, Table 3): 85.8 ± 6.7 | The number of punished responses ([7]; rat, i.p., dose 0.5 mg/kg, Table 2): 49.88 ± 19.27 | The number of punished responses ([7]; rat, i.p., dose 1.0 mg/kg, Table 2): 41.29 ± 16.71 | The number of punished responses ([7]; rat, i.p., dose 2.0 mg/kg, Table 2): 43.52 ± 14.8 | The number of punished responses ([7]; rat, i.p., dose 5.0 mg/kg, Table 2): 29.88 ± 13.13 | The number of punished responses ([7]; rat, i.p., dose 10.0 mg/kg, Table 2): 30.88 ± 10.93 | Anxiolytic effect in Vogel conflict test, in words ([7]; rat, i.p., Compound 1 vs diazepam: 0.5-2 mg/kg vs 1 and 2 mg/kg): increase the amount of punished responses in a Vogel conflict test after acute and chronic administration; also recorded: displayed more anxiolytic effect than diazepam | Influence on learning and memory formation, in words ([8]; passive avoidance): able to facilitate memory trace formation; also recorded: able to facilitate the learning ability: the time spent in the dark compartment was significantly decreased | The time spent in dark compartment [8, 11]: 15.9 ± 3.4 s | The time spent in light compartment [8, 11]: 164.1 ± 9.4 s | Disturbances according to rotating rod test, effect in % ([9]; dose 5.0): 0% | Disturbances according to rotating rod test, effect in % ([9]; dose 10.0): 0% | Disturbances according to rotating rod test, effect in % ([9]; dose 20.0): 0% | Disturbances according to rotating rod test, effect in % ([9]; dose 40.0): 0% | Disturbances according to rotating rod test, effect in % ([9]; dose 80.0): 0% | Disturbances according to rotating rod test, effect in % ([9]; dose 250.0): 0% | Motor behavior disturbance and myorelaxation, in words ([9]; rotating rod and horizontal wire tests, Compound 1 5-250 mg/kg): does not manifest amnestic and myorelaxant effects; also recorded: fails to evoke disturbances in the coordination of movements and myorelaxation

Reference: patent US5378846A, “1,2,3,4-tetrahydropyrrolo-[1,2-a]-pyrazine derivatives” (Russian-American Institute For New Drug Development, priority 1993, dated 1995)
